The source of these data is PubChem BioAssay (NCI).

Test systems include K-562 leukemia; TK-10 renal; SR leukemia; OVCAR-4 ovarian; HCC-2998 colon; EKVX NSCLC; UACC-62 melanoma; COLO 205 colon; HCT-15 colon; CCRF-CEM leukemia.
What all share (test): NCI tumour cell line growth inhibition, 48 h

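Interpolation was linear, between the two tested concentrations surrounding the appropriate level; five concentrations were tested over 48 hours in 96-well plates. GI50 is the concentration that inhibits growth by half. TGI: concentration producing complete growth inhibition.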

Regarding `CC/C=C\C[C@H](O)C/C=C1/C(=O)C=C[C@@H]1C/C=C\CCCC(=O)OC`, the GI50 with K-562 leukemia is 732 nM; in the test on TK-10 renal it was 3.29 µM; in the test on SR leukemia it was 403 nM; in the test with OVCAR-4 ovarian, 3.48 µM; in the test with HCC-2998 colon it was 2090 nM; in the test with EKVX NSCLC, 3.11 µM. Moreover, the GI50 was 1050 nM with UACC-62 melanoma, 1840 nM with COLO 205 colon, 538 nM in the test with HCT-15 colon and 368 nM in the test on CCRF-CEM leukemia. For the same molecule, the TGI in the test with K-562 leukemia was determined as 21.7 µM; with TK-10 renal, 9.13 µM; in the test with SR leukemia it was 6.18 µM; in the test with OVCAR-4 ovarian, 16.2 µM; with HCC-2998 colon, 3.68 µM; in the test with EKVX NSCLC, 12.4 µM. For the same molecule, the TGI in the test on UACC-62 melanoma came to 3.49 µM; in the test with COLO 205 colon, 4.02 µM; with HCT-15 colon, 2790 nM; in the test on CCRF-CEM leukemia, 11.4 µM.
